From patent US11542266B1, “Substituted piperidines as BTK inhibitors” (HAISCO PHARMACEUTICALS PTE. LTD., priority 2019, dated 2023)
Structures can show the parent of a compound that is named as a salt.

system: Mino cells; assay: Inhibition of cell proliferation, Mino cells (Cell Viability Assay, 72 h); assay type: cell-based, human; settings: Homo sapiens
Procedure: SU-DHL-4, Mino, and SU-DHL-6 cells, in the culture medium of RPMI1640+10% FBS, were cultured in an incubator at 37° C. under 5% CO2. Cells were plated in a 96-well plate. Specifically, SU-DHL-4 cells were at 20000/well, Mino and SU-DHL-6 cells were at 5000/well, with 90 μL/well. 10 μL of the compounds at different concentrations were added to each well. There were 3 replicate wells for each concentration, and the last column, added with DMSO, was used as a vehicle control group. The cultures were continued for 72 hours at 37° C. under 5% CO2. After 72 hours, 100 μL of detection reagent (Cell Viability Assay, Promega, G7573) was added to each well, and the cultures were uniformly mixed for 2 minutes, and incubated at room temperature for 10 minutes. The fluorescence signal value was measured with a microplate reader (PHERAstar FSX). The IC50 value of the compound on cell proliferation inhibition was calculated using Origin 9.2 software, and the inhibition rate at the highest concentration of the compound (Max inhi. %) was calculated according to formula (1). Max inhi. %=(1-T72 administration/T72 vehicle)×100 Formula (1).

Structure (SMILES) | IC50
Nc1ncnc2c1c(-c1ccc(Oc3ccccc3)cc1)nn2C1CCN(C2CN(C3CCC4(CC3)CN(c3ccc5c(c3)C(=O)N(C3CCC(=O)NC3=O)C5=O)C4)C2)CC1 (stereo not shown) [Compound 54, 5-(7-(3-(4-(4-amino-3-(4-phenoxyphenyl)-1H-pyrazolo[3,4-d]pyrimidin-1-yl)piperidin-1-yl)azetidin-1-yl)-2-azaspiro[3.5]nonan-2-yl)-2-(2,6-dioxopiperidin-3-yl)isoindoline-1,3-dione] | 200 nM

same assay, conditions: inhibition rate at the highest concentration of the compound

Structure (SMILES) | Mino Max inhi. %
Nc1ncnc2c1c(-c1ccc(Oc3ccccc3)cc1)nn2C1CCN(C2C[C@@H]3CN(C4CC5(CCN(c6ccc7c(c6)C(=O)N(C6CCC(=O)NC6=O)C7=O)CC5)C4)C[C@@H]3C2)CC1 (stereo partly drawn) [Compound 52, 5-(2-((3aR,6aS)-5-(4-(4-amino-3-(4-phenoxyphenyl)-1H-pyrazolo[3,4-d]pyrimidin-1-yl)piperidin-1-yl)hexahydrocyclopenta[c]pyrrol-2(1H)-yl)-7-azaspiro[3.5]nonan-7-yl)-2-(2,6-dioxopiperidin-3-yl)isoindoline-1,3-dione] | 99.7%
Nc1ncnc2c1c(-c1ccc(Oc3ccccc3)cc1)nn2C1CCN(C2C[C@@H]3CN(C4C[C@@H]5CN(c6ccc7c(c6)C(=O)N(C6CCC(=O)NC6=O)C7=O)C[C@@H]5C4)C[C@@H]3C2)CC1 (stereo partly drawn) [Compound 53, 5-((3aR,3′aR,6aS,6′aS)-5-(4-(4-amino-3-(4-phenoxyphenyl)-1H-pyrazolo[3,4-d]pyrimidin-1-yl)piperidin-1-yl)dodecahydro-1H-[2,5′-bi(cyclopenta[c]pyrrol)]-2′(1′H)-yl)-2-(2,6-dioxopiperidin-3-yl)isoindoline-1,3-dione trifluoroacetate] | 99.6%
Nc1ncnc2c1c(-c1ccc(Oc3ccccc3)cc1)nn2C1CCN(C2CCC3(CC2)CN(C2CCC4(CC2)CN(c2ccc5c(c2)C(=O)N(C2CCC(=O)NC2=O)C5=O)C4)C3)CC1 (stereo not shown) [Compound 55, 5-(7-(4-(4-amino-3-(4-phenoxyphenyl)-1H-pyrazolo[3,4-d]pyrimidin-1-yl)piperidin-1-yl)-2,2′-diaza[2,7′-bispiro[3.5]nonan]-2′-yl)-2-(2,6-dioxopiperidin-3-yl)isoindoline-1,3-dione] | 99.9%
Nc1ncnc2c1c(-c1ccc(Oc3ccccc3)cc1)nn2C1CCN(C2CCC3(CC2)CN(C2CN(c4ccc5c(c4)C(=O)N(C4CCC(=O)NC4=O)C5=O)C2)C3)CC1 (stereo not shown) [Compound 56, 5-(3-(7-(4-(4-amino-3-(4-phenoxyphenyl)-1H-pyrazolo[3,4-d]pyrimidin-1-yl)piperidin-1-yl)-2-azaspiro[3.5]nonan-2-yl)azetidin-1-yl)-2-(2,6-dioxopiperidin-3-yl)isoindoline-1,3-dione] | 99.9%
Nc1ncnc2c1c(-c1ccc(Oc3ccccc3)cc1)nn2C1CCN(C2CC3CCC(C2)N3C2CN(c3ccc4c(c3)C(=O)N(C3CCC(=O)NC3=O)C4=O)C2)CC1 (stereo not shown) [Compound 57, 5-(3-(3-(4-(4-amino-3-(4-phenoxyphenyl)-1H-pyrazolo[3,4-d]pyrimidin-1-yl)piperidin-1-yl)-8-azabicyclo[3.2.1]octan-8-yl)azetidin-1-yl)-2-(2,6-dioxopiperidin-3-yl)isoindoline-1,3-dione] | 99.2%
Nc1ncnc2c1c(-c1ccc(Oc3ccccc3)cc1)nn2C1CCN(C2CC3CCC(C2)N3c2ccc3c(c2)C(=O)N(C2CCC(=O)NC2=O)C3=O)CC1 (stereo not shown) [Compound 58, 5-(3-(4-(4-amino-3-(4-phenoxyphenyl)-1H-pyrazolo[3,4-d]pyrimidin-1-yl)piperidin-1-yl)-8-azabicyclo[3.2.1]octan-8-yl)-2-(2,6-dioxopiperidin-3-yl)isoindoline-1,3-dione] | 95.3%
